Key:
Assay type in all cases: in vivo
[1] = system: transplanted rice; assay: Test Example 1: preemergence treatment under submerged conditions, effect on crop; conditions: dose 2.52 g/a
Summary of the method: (§1)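 Flooded-paddy preemergence assay; EC diluted with water, surface-applied at weed seeding; doses g/a; rice transplanted at 2.5 leaves; 0–5 mortality score after 3 weeks.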

[2] = system: giant foxtail; assay: Test Example 4: herbicidal effect in foliage treatment; conditions: dose 3.2 g/a, three weeks after the application
Summary of the method: (§2)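 Post-emergence foliar spray of water-diluted emulsifiable concentrate at predetermined doses (g per are), applied to plants 14 days after sowing in sterile diluvial soil (greenhouse, 25 to 30° C). Visual scale rating of effect taken 3 weeks later.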

[3] = system: wild oat; assay: as above; conditions: dose 3.2 g/a, three weeks after the application
Summary of the method: as §2

[4] = system: large crabgrass; assay: as above; conditions: dose 3.2 g/a, three weeks after the application
Summary of the method: as §2

[5] = system: redroot pigweed; assay: as above; conditions: dose 3.2 g/a, three weeks after the application
Summary of the method: as §2

[6] = system: posumbu knotweed; assay: as above; conditions: dose 3.2 g/a, three weeks after the application
Summary of the method: as §2

[7] = system: Italian ryegrass; assay: as above; conditions: dose 3.2 g/a, three weeks after the application
Summary of the method: as §2

[8] = system: common chickweed; assay: as above; conditions: dose 3.2 g/a, three weeks after the application
Summary of the method: as §2

[9] = system: velvetleaf; assay: as above; conditions: dose 3.2 g/a, three weeks after the application
Summary of the method: as §2

[10] = system: beadstraw; assay: as above; conditions: dose 3.2 g/a, three weeks after the application
Summary of the method: as §2

[11] = system: common lambsquater; assay: as above; conditions: dose 3.2 g/a, three weeks after the application
Summary of the method: as §2

[12] = system: barnyardgrass; assay: as above; conditions: dose 3.2 g/a, three weeks after the application
Summary of the method: as §2

[13] = system: water foxtail; assay: as above; conditions: dose 3.2 g/a, three weeks after the application
Summary of the method: as §2

[14] = system: common ragweed; assay: as above; conditions: dose 3.2 g/a, three weeks after the application
Summary of the method: as §2

[15] = system: barnyardgrass; assay: Test Example 2: herbicidal effects during the vegetation period under submerged conditions; conditions: treatment during the vegetation period under submerged conditions; dose 2.52 g/a
Summary of the method: (§3)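 Barnyardgrass, bulrush and ducksalad were co-sown in alluvial soil flooded to 4 cm and grown in a greenhouse at 25 to 30° C. At the 1- or 2-leaf stage, water-diluted emulsifiable concentrates went onto the water surface at set doses (g/a). Herbicidal effect was scored three weeks later on a graded scale.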

[16] = system: ducksalad; assay: as above; conditions: treatment during the vegetation period under submerged conditions; dose 2.52 g/a
Summary of the method: as §3

[17] = system: bulrush; assay: as above; conditions: treatment during the vegetation period under submerged conditions; dose 2.52 g/a
Summary of the method: as §3

[18] = system: barnyardgrass; assay: Test Example 1: herbicidal effects in preemergence treatment under submerged conditions; conditions: dose 2.52 g/a
Summary of the method: as §1

[19] = system: ducksalad; assay: as above; conditions: dose 2.52 g/a
Summary of the method: as §1

[20] = system: bulrush; assay: as above; conditions: dose 2.52 g/a
Summary of the method: as §1

[21] = system: giant foxtail; assay: Test Example 3: herbicidal effects in soil treatment; conditions: dose 3.2 g/a
Summary of the method: (§4)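 Seeds were sown in sterilized diluvial soil and covered with about 1.5 cm of soil. Compounds, formulated as emulsifiable concentrates and diluted with water, were sprayed evenly over the soil surface at set doses in g/a. Herbicidal effect was scored on a rating scale three weeks later.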

[22] = system: wild oat; assay: as above; conditions: dose 3.2 g/a
Summary of the method: as §4

[23] = system: large crabgrass; assay: as above; conditions: dose 3.2 g/a
Summary of the method: as §4

[24] = system: redroot pigweed; assay: as above; conditions: dose 3.2 g/a
Summary of the method: as §4

[25] = system: posumbu knotweed; assay: as above; conditions: dose 3.2 g/a
Summary of the method: as §4

[26] = system: Italian ryegrass; assay: as above; conditions: dose 3.2 g/a
Summary of the method: as §4

[27] = system: common chickweed; assay: as above; conditions: dose 3.2 g/a
Summary of the method: as §4

[28] = system: velvetleaf; assay: as above; conditions: dose 3.2 g/a
Summary of the method: as §4

[29] = system: beadstraw; assay: as above; conditions: dose 3.2 g/a
Summary of the method: as §4

[30] = system: common lambsquater; assay: as above; conditions: dose 3.2 g/a
Summary of the method: as §4

[31] = system: barnyardgrass; assay: as above; conditions: dose 3.2 g/a
Summary of the method: as §4

[32] = system: water foxtail; assay: as above; conditions: dose 3.2 g/a
Summary of the method: as §4

[33] = system: common ragweed; assay: as above; conditions: dose 3.2 g/a
Summary of the method: as §4

CC(C)COC(=O)N(c1ccccc1CN1COCN(C)C1=O)S(=O)(=O)C(F)(F)F [IV-4]
a: transplanted rice, effect on crop (evaluation scale 0-5) [1]: 0 (mortality of less than 5% (almost ineffective))
E: giant foxtail, herbicidal effect [2]: 3 (mortality of at least 40% and less than 70%)
F: wild oat, herbicidal effect [3]: 0 (mortality of less than 5% (almost ineffective))
D: large crabgrass, herbicidal effect [4]: 3 (mortality of at least 40% and less than 70%)
K: redroot pigweed, herbicidal effect [5]: 0 (mortality of less than 5% (almost ineffective))
M: posumbu knotweed, herbicidal effect [6]: 0 (mortality of less than 5% (almost ineffective))
H: Italian ryegrass, herbicidal effect [7]: 1 (mortality of at least 5% and less than 20%)
N: common chickweed, herbicidal effect [8]: 3 (mortality of at least 40% and less than 70%)
I: velvetleaf, herbicidal effect [9]: 3 (mortality of at least 40% and less than 70%)
O: beadstraw, herbicidal effect [10]: 0 (mortality of less than 5% (almost ineffective))
L: common lambsquater, herbicidal effect [11]: 0 (mortality of less than 5% (almost ineffective))
A: barnyardgrass, herbicidal effect [12]: 4 (mortality of at least 70% and less than 90%)
G: water foxtail, herbicidal effect [13]: 4 (mortality of at least 70% and less than 90%)
J: common ragweed, herbicidal effect [14]: 0 (mortality of less than 5% (almost ineffective))
A: barnyardgrass, herbicidal effect (evaluation scale 0-5) [15]: 5 (mortality of 90% or above (nearly complete death))
C: ducksalad, herbicidal effect (evaluation scale 0-5) [16]: 5 (mortality of 90% or above (nearly complete death))
B: bulrush, herbicidal effect (evaluation scale 0-5) [17]: 5 (mortality of 90% or above (nearly complete death))
A: barnyardgrass, herbicidal effect (evaluation scale 0-5) [18]: 5 (mortality of 90% or above (nearly complete death))
C: ducksalad, herbicidal effect (evaluation scale 0-5) [19]: 4 (mortality of at least 70% and less than 90%)
B: bulrush, herbicidal effect (evaluation scale 0-5) [20]: 5 (mortality of 90% or above (nearly complete death))
herbicidal effect, E: giant foxtail [21]: 3 (mortality of at least 40% and less than 70%)
herbicidal effect, F: wild oat [22]: 0 (mortality of less than 5% (almost ineffective))
herbicidal effect, D: large crabgrass [23]: 4 (mortality of at least 70% and less than 90%)
herbicidal effect, K: redroot pigweed [24]: 0 (mortality of less than 5% (almost ineffective))
herbicidal effect, M: posumbu knotweed [25]: 0 (mortality of less than 5% (almost ineffective))
herbicidal effect, H: Italian ryegrass [26]: 0 (mortality of less than 5% (almost ineffective))
herbicidal effect, N: common chickweed [27]: 0 (mortality of less than 5% (almost ineffective))
herbicidal effect, I: velvetleaf [28]: 0 (mortality of less than 5% (almost ineffective))
herbicidal effect, O: beadstraw [29]: 0 (mortality of less than 5% (almost ineffective))
herbicidal effect, L: common lambsquater [30]: 0 (mortality of less than 5% (almost ineffective))
herbicidal effect, A: barnyardgrass [31]: 4 (mortality of at least 70% and less than 90%)
herbicidal effect, G: water foxtail [32]: 4 (mortality of at least 70% and less than 90%)
herbicidal effect, J: common ragweed [33]: 0 (mortality of less than 5% (almost ineffective))
